Results published in patent publication US5925642A, “Pyridopyrimidines” (Byk Gulden Lomberg Chemische Fabrik GmbH, priority 1995, dated 1999).
Where a name gives a salt, the structure may show the parent alone.

Target: T1, p-glycoprotein (Homo sapiens, UniProt P08183)
T1 construct: Multidrug-resistant and -sensitive cells of the T-lymphoblastoid leukemia cell lines CCRF-VCR 1000 and CCRF-CEM are withdrawn from the cell culture; endogenous in cells; host or cells: CCRF-VCR 1000 (multidrug-resistant); CCRF-CEM (sensitive)
Experiment: Measurement of P-glycoprotein inhibition (Rhodamine 123 accumulation)
Format: cell-based
Experimental: Multidrug-resistant and -sensitive cells of the T-lymphoblastoid leukemia cell lines CCRF-VCR 1000 and CCRF-CEM are withdrawn from the cell culture and harvested by centrifugation. The cells are taken up in RPMI medium (pH=7.3) without fetal calf serum and incubated at 37° C. for 30 min with the rising concentrations of resistance modulators. […] The excitation wavelength is 488 nm.
The number of the investigated compounds correspond to the numbers in the examples.

T1 sequence (P08183 whole entry): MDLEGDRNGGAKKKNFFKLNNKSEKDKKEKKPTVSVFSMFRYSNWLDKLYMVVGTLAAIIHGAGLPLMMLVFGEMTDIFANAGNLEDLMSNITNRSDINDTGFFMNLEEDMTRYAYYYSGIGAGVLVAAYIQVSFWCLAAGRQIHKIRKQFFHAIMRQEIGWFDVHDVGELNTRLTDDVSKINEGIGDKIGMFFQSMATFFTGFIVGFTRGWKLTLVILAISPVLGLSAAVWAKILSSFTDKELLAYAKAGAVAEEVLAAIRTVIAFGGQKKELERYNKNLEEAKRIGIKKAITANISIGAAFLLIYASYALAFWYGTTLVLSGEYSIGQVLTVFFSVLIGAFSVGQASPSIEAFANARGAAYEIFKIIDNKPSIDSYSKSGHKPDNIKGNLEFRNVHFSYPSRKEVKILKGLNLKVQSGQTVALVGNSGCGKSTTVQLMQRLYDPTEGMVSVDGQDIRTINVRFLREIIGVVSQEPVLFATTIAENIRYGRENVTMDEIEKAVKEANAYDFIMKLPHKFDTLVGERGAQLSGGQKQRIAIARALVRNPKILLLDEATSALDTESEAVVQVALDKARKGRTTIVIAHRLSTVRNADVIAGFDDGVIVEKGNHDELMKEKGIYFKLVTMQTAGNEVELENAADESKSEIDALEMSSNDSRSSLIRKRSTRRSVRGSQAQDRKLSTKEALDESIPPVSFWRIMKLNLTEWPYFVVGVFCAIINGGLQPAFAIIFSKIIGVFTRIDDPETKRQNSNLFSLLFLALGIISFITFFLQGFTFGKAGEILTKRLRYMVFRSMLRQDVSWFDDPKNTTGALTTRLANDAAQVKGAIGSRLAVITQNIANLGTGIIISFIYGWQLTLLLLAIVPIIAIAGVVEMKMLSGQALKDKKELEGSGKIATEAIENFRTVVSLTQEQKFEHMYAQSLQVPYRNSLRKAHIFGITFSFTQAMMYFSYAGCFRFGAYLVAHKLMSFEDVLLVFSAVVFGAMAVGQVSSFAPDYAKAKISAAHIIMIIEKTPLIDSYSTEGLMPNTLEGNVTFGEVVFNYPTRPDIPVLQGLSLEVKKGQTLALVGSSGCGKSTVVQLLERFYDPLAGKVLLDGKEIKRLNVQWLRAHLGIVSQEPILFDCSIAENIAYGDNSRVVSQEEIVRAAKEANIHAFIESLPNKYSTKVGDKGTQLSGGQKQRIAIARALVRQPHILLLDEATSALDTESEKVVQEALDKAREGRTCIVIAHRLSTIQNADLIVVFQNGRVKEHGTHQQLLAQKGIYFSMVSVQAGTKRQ

SMILES	EC50 [nM]	pEC50 (CCRF-VCR 1000 and CCRF-CEM cells, Rhodamine 123 0.8 mg/l, 30 min preincubation, 1 h at 37° C., RPMI without fetal calf serum, pH 7.3)
Cc1nc2nc(C)n(CCN3CCOCC3)c(=O)c2c(-c2cccc([N+](=O)[O-])c2)c1C(=O)CCCCCCCCCCN1CCC(c2ccccc2)(c2ccccc2)CC1 [Compound 1, 3,4-Dihydro-2,7-dimethyl-3-[2-(4-morpholinyl)ethyl]-5-3-nitrophenyl)-4-oxo-6-[1-oxo-11-(4,4-diphenyl-1-piperidinyl)undecyl]-pyrido[2,3-d]pyrimidine dihydrochloride]	25.1	
Cc1nc2nc(C)n(-c3ccccc3)c(=O)c2c(-c2cccc([N+](=O)[O-])c2)c1C(=O)CCCCCCCCCCN1CCC(c2ccccc2)(c2ccccc2)CC1 [Compound 2, 3,4-Dihydro-2,7-dimethyl-5-(3-nitrophenyl)-4-oxo-3-phenyl-6-[1-oxo-11-(4,4-diphenyl-1-piperidinyl)undecyl]pyrido[2,3-d]pyrimidine hydrochloride]	63.1	
CCCn1cnc2nc(C)c(C(=O)CCCCCCCN3CCC(c4ccccc4)(c4ccccc4)CC3)c(-c3cccc([N+](=O)[O-])c3)c2c1=O [Compound 3]	25.1	
CCCCCn1cnc2nc(C)c(C(=O)CCCCCCCN3CCC(c4ccccc4)(c4ccccc4)CC3)c(-c3cccc([N+](=O)[O-])c3)c2c1=O [Compound 4]	20	
Cc1nc2nc(C)n(CCN3CCOCC3)c(=O)c2c(-c2cccc([N+](=O)[O-])c2)c1C(=O)CCCCCCCN1CCC(c2ccccc2)(c2ccccc2)CC1 [Compound 5]		6.8
CCCCn1cnc2nc(C)c(C(=O)CCCCCCCCCCN3CCC(c4ccccc4)(c4ccccc4)CC3)c(-c3cccc([N+](=O)[O-])c3)c2c1=O [Compound 6]	15.8	
CCCn1cnc2nc(C)c(C(=O)CCCCCCCCCCN3CCC(c4ccccc4)(c4ccccc4)CC3)c(-c3cccc([N+](=O)[O-])c3)c2c1=O [Compound 7]	50.1	
CCCCCn1cnc2nc(C)c(C(=O)CCCCCCCCCCN3CCC(c4ccccc4)(c4ccccc4)CC3)c(-c3cccc([N+](=O)[O-])c3)c2c1=O [Compound 8]	31.6	
Cc1nc2ncn(-c3ccccc3)c(=O)c2c(-c2cccc([N+](=O)[O-])c2)c1C(=O)CCCCCCCCCCN1CCC(c2ccccc2)(c2ccccc2)CC1 [Compound 9]	63.1	
Cc1nc2ncn(Cc3ccccc3)c(=O)c2c(-c2cccc([N+](=O)[O-])c2)c1C(=O)CCCCCCCCCCN1CCC(c2ccccc2)(c2ccccc2)CC1 [Compound 10]	25.1	
COc1ccc(-n2cnc3nc(C)c(C(=O)CCCCCCCCCCN4CCC(c5ccccc5)(c5ccccc5)CC4)c(-c4cccc([N+](=O)[O-])c4)c3c2=O)cc1 [Compound 11]	39.8	
Cc1nc2ncn(CCN3CCOCC3)c(=O)c2c(-c2cccc([N+](=O)[O-])c2)c1C(=O)CCCCCCCCCCN1CCC(c2ccccc2)(c2ccccc2)CC1 [Compound 12]	25.1	
CCCn1c(C)nc2nc(C)c(C(=O)CCCCCCCN3CCC(c4ccccc4)(c4ccccc4)CC3)c(-c3cccc([N+](=O)[O-])c3)c2c1=O [Compound 13]	50.1	
CCCCCn1c(C)nc2nc(C)c(C(=O)CCCCCCCN3CCC(c4ccccc4)(c4ccccc4)CC3)c(-c3cccc([N+](=O)[O-])c3)c2c1=O [Compound 14]	79.4	
Cc1nc2nc(C)n(CCCN3CCOCC3)c(=O)c2c(-c2cccc([N+](=O)[O-])c2)c1C(=O)CCCCCCCCCCN1CCC(c2ccccc2)(c2ccccc2)CC1 [Compound 15]	31.6	
Cc1nc2nc(C)n(CCN3CCCCC3)c(=O)c2c(-c2cccc([N+](=O)[O-])c2)c1C(=O)CCCCCCCCCCN1CCC(c2ccccc2)(c2ccccc2)CC1 [Compound 16]	79.4	
Cc1nc2ncn(CCCN3CCOCC3)c(=O)c2c(-c2cccc([N+](=O)[O-])c2)c1C(=O)CCCCCCCCCCN1CCC(c2ccccc2)(c2ccccc2)CC1 [Compound 17]	25.1	
Cc1nc2nc(C)n(CCN3CCCCC3)c(=O)c2c(-c2cccc([N+](=O)[O-])c2)c1C(=O)CCCCCCCN1CCC(c2ccccc2)(c2ccccc2)CC1 [Compound 18]	50.1	
CCCCn1c(C)nc2nc(C)c(C(=O)CCCCN3CCC(c4ccccc4)(c4ccccc4)CC3)c(-c3cccc([N+](=O)[O-])c3)c2c1=O [Compound 19]	100	
CCCCn1c(C)nc2nc(C)c(C(=O)CCCCCCCN3CCC(c4ccccc4)(c4ccccc4)CC3)c(-c3cccc([N+](=O)[O-])c3)c2c1=O [Compound 20]	31.6	
CCCCn1cnc2nc(C)c(C(=O)CCCCCCCN3CCC(c4ccccc4)(c4ccccc4)CC3)c(-c3cccc([N+](=O)[O-])c3)c2c1=O [Compound 21]	50.1	
Cc1nc2ncn(Cc3ccccc3)c(=O)c2c(-c2cccc([N+](=O)[O-])c2)c1C(=O)CCCCCCCN1CCC(c2ccccc2)(c2ccccc2)CC1 [Compound 22]	39.8	
Cc1nc2nc(C)n(Cc3ccccc3)c(=O)c2c(-c2cccc([N+](=O)[O-])c2)c1C(=O)CCCCCCCN1CCC(c2ccccc2)(c2ccccc2)CC1 [Compound 23]	50.1	
